For series [1] the following is noted: cited from earlier work.
The nature of series [2]: Amount of pesticide incorporated into Sokalan PA-15/Arquad 18/50 aggregate. Format: physicochemical. To be noted: pesticide incorporated into aggregate with 1 equivalent Sokalan PA-15 and 2 equivalents Arquad 18/50. As to the method:
[…] of the active ingredient listed was placed into a 20 mL vial and 1 equivalent of a 1 molar sodium hydroxide solution added. The mixture was stirred until the active dissolved (0.5 or 1.0 gram of deionized water was added if necessary). One equivalent of Sokalan PA-15 (linear polyacrylic acid sodium salt with low molecular weight of 1200 g/mol) was added and the mixture mixed. 2 equivalents of Arquad 18/50 octadecyltrimethyl ammonium chloride (aqueous isopropanol solution) were added and the mixture was stirred using a vortex mixer. Using a process similar to that described in Example 2, the amount of pesticide incorporated into the aggregate was measured.

Series [3] can be described thus: Uptake of pesticide into the aggregate, UV-spectroscopy of the supernatant. The series is classed as physicochemical.
For series [4] the following is noted: cited from earlier work. The source holds these as a separate data set.

Where only a bound is given, the exact number is not on record here.

Data on 17 molecules can be found in patent US20100016392A1, “Pesticidal Aggregates” (priority 2006, published 2010).

What is called pKa is the pH at which an ionisable group is half protonated.

For the molecule `CCOc1nc(F)cc2nc(S(=O)(=O)Nc3c(Cl)cccc3C(=O)OC)nn12` [Cloransulam-methyl], in series [1], the pKa is 5.4. The Percent a.i. in series [2] was determined as 5.11.

As for `CCc1cnc(C2=NC(C)(C(C)C)C(=O)N2)c(C(=O)O)c1` (racemic) [Imazethapyr, (+/−)-2-[4,5-dihydro-4-methyl-4-(1-methylethyl)-5-oxo-1H-imidazol-2-yl]-5-ethyl-3-pyridinecarboxylic acid], the Percent a.i. in series [2] stood at 5.57.

Take `COc1cc(OC)nc(NC(=O)NS(=O)(=O)c2ncccc2C(=O)N(C)C)n1` [Nicosulfuron]: in series [1], the pKa was 4.5. For the same molecule, the Percent a.i. in series [2] came out at 6.96.

Regarding `C[C@@H](Oc1ccc(Oc2cnc3cc(Cl)ccc3n2)cc1)C(=O)O` [Quizalofop-P], in series [1], the pKa is on record as >3. Besides, the Percent a.i. in series [2] worked out at 4.76.

`CS(=O)(=O)NC(=O)c1cc(Oc2ccc(C(F)(F)F)cc2Cl)ccc1[N+](=O)[O-]` [Fomesafen, 5-[2-chloro-4-(trifluoromethyl)phenoxy]-N-(methylsulfonyl)-2-nitrobenzamide]: the Percent a.i. in series [2] was determined as 7.17.

For `O=C(NC(=O)c1c(F)cccc1F)Nc1cc(Cl)c(OC(F)(F)C(F)C(F)(F)F)cc1Cl` (centres unmarked) [Lufenuron], in series [2], the Percent a.i. is on record as 8.16.

In the case of `C=C1C[C@]23C[C@@]1(O)CC[C@H]2[C@@]12C=C[C@H](O)[C@@](C)(C(=O)O1)[C@H]2[C@@H]3C(=O)O` [Gibberellic acid], in series [2], the Percent a.i. was found to be 6.28.

As for `Cc1nn(-c2cc(NS(C)(=O)=O)c(Cl)cc2Cl)c(=O)n1C(F)F` [Sulfentrazone], the “Uptake of sulfentrazone in the aggregate” value in series [3] (mixture: Atlox 550S 0.075, C14NBr 0.5, sulfentrazone 0.5 weight %) is reported as 74 w/w %; in series [3] (mixture: Atlox 550S 0.15, C14NBr 0.7, sulfentrazone 0.5 weight %) it was 83 w/w %; in series [3] (mixture: Atlox 550S 0.25, C14NBr 0.75, sulfentrazone 0.5 weight %), 77 w/w %; in series [3] (mixture: Atlox 550S 0.5, C14NBr 1.25, sulfentrazone 0.5 weight %) it was 90 w/w %; in series [3] (mixture: REAX 88B 0.25, C14NBr 0.6, sulfentrazone 0.5 weight %) it was 82 w/w %; in series [3] (mixture: REAX 88B 0.30, C14NBr 0.8, sulfentrazone 0.5 weight %), 92 w/w %. Moreover, in series [3] (mixture: REAX 88B 0.5, C14NBr 1.0, sulfentrazone 0.5 weight %), the “Uptake of sulfentrazone in the aggregate” value is 94 w/w %.

For `N#Cc1cc(Br)c(O)c(Br)c1` [Bromoxynil, 3,5-dibromo-4-hydroxybenzonitrile], in series [2], the Percent a.i. came out at 4.34.

Take `CS(=O)(=O)c1ccc(C(=O)C2C(=O)CCCC2=O)c([N+](=O)[O-])c1` [Mesotrione]: in series [2], the Percent a.i. amounted to 6.21.

As for `O=C(O)COc1ccc(Cl)cc1Cl` [2,4-D, (2,4-dichlorophenoxy)acetic acid], in series [1], the pKa was 2.9. Besides, the Percent a.i. in series [2] is 2.45.

Consider `CCC(CC)Nc1c([N+](=O)[O-])cc(C)c(C)c1[N+](=O)[O-]` [pendimethalin], for which the “octanol/water partition coefficient log P” value in series [4] is 5.2.

Consider `COc1c(Cl)ccc(Cl)c1C(=O)O` [Dicamba, 3,6-dichloro-2-methoxybenzoic acid], for which the pKa in series [1] is 3. In series [2], the Percent a.i. is 3.77.

For `O=C(O)c1nc(Cl)ccc1Cl` [Clopyralid (Lontrel)], in series [2], the Percent a.i. was 3.46.

Turning to `O=C(O)CNCP(=O)(O)O` [Glyphosate, N-(phosphonomethyl)glycine], the pKa in series [1] is listed as 4.4. Also, the Percent a.i. in series [2] is reported as 4.70.

Turning to `Cc1c(COC(=O)[C@@H]2[C@H](/C=C(\Cl)C(F)(F)F)C2(C)C)cccc1-c1ccccc1` (racemic) [Bifenthrin], the “octanol/water partition coefficient log P” value in series [4] was > 6.

Regarding `CC1(C(=O)Nc2ccc(O)c(Cl)c2Cl)CCCCC1` [Fenhexamid], the Percent a.i. in series [2] is 4.47.
